Reference: patent US9738610B2, “Indazole derivatives and uses thereof” (Whitehead Institute for Biomedical Research, priority 2012, dated 2017)
Like-named read-outs stand apart in the source and are kept apart here.

Legend:
[1] = PBS stability assay; format: physicochemical; conditions: 48-hour incubation, 23° C.
[2] = tested on: C. albicans CaCi-2; experiment: CaCi-2 growth inhibition in the presence of 8 μg/ml fluconazole (Alamar Blue); format: cell-based, Candida albicans; conditions: Candida albicans
[3] = tested on: NIH-3T3 mammalian fibroblasts; experiment: Counterscreen mammalian cell toxicity assay (fibroblast toxicity); format: cell-based, murine; conditions: for IC50: Mus musculus
[4] = tested on: C. albicans CaCi-2; experiment: Secondary single-agent (no-fluconazole) activity assay; format: cell-based, Candida albicans; conditions: for IC50: Candida albicans
Procedure, shortened: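 C. albicans CaCi-2 in RPMI synthetic defined medium with 1% Pen/Strep, starting OD600 0.00015, exposed to compound alone (no fluconazole) for 48 h at 37 °C without agitation. Growth read as Alamar Blue fluorescence (1:200 final) after 2 h at room temperature.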

COC(=O)Cn1nc(-c2cccc(OC)c2)c2ccccc21 [Compound I-4, methyl 2-(3-(3-methoxyphenyl)-1H-indazol-1-yl)acetate]
Stability in PBS solution, remaining [1]: > 99% | IC50 ([2]; CACI2, read-out: CaCi-2 IC50 with 8 μg/ml fluconazole): 440 nM | IC50 ([2]; CACI2, read-out: CaCi-2 growth inhibition IC50 (nM)): 440 nM | Dose-dependent activity against murine 3T3 fibroblasts [3]: inactive | Mammalian fibroblast IC50 relative to CaCi-2 IC50 with fluconazole [3]: >59-fold | IC50 ([3]; NIH3T3, read-out: Fibroblast toxicity IC50 (nM)): > 26000 nM | IC50 ([3]; NIH3T3, read-out: IC50 in the mammalian fibroblast assay): > 26000 nM | Fold Selective* (Anti-target IC50/Target IC50) ([3]; fibroblast toxicity vs CaCi-2 growth inhibition): 59 | Dose-dependent activity against C. albicans CaCi-2 [4]: inactive | IC50 ([4]; CACI2, read-out: Activity without fluconazole IC50 (nM)): > 26000 nM | IC50 ([4]; CACI2, read-out: CaCi-2 IC50 without fluconazole): > 26000 nM | Fold Selective* (Anti-target IC50/Target IC50) ([4]; activity without fluconazole vs CaCi-2 growth inhibition with fluconazole): 59
